Among the data in patent publication US10487071B2, “Bis-triazole compounds with anti-biofilm and anti-corrosion properties” (Université de Toulon, priority 2015, dated 2019) are activity, EC50 and IE % values, retold here.

Where two headings read alike, the source gives them in different places.

Test [1] has as its system Pseudoalteromonas ulvae (TC14). In words: Anti-adhesion test, strain TC14. Type of test: cell-based. As to conditions: Pseudoalteromonas ulvae; for activity at 200 µM: 15 h. As for the experimental part:
(§1) Bacterial strains were grown on Väätänen nine-salts solution (VNSS). When the stationary phase was reached, the bacterial suspension was centrifuged. Cells were then diluted in sterile artificial sea water (ASW) and introduced in microtiter plates (sterile black PS; Nunc, Fisher Scientific, France) with the tested compound (at eight concentrations in three replicates) in the presence of three controls: (i) non-specific staining control, (ii) adhesion control, and (iii) positive control. The maximum percentage of solvent (DMSO 2%) used to dilute the tested compound was also tested in triplicate as additional control. After incubation during an optimized adhesion time (moderately 15 h), non-adhered bacteria were eliminated and adhered cells were quantified after SYTO 61 (1 μM) staining. A percentage of inhibition was calculated per well. A sigmoid dose-response curve was obtained by plotting the percentage of inhibition as a function of the log of tested compound concentration, after mean (n=3) and standard deviation (SD) calculation per triplicate for each concentration. EC50 values were then calculated for each compound.
Pseudoalteromonas ulvae (TC14) was isolated in June 2010 in the Military Harbor of Toulon (Mediterranean Sea, France) as described in F. Brian-Jaisson, A. Ortalo-Magné, L. Guentas-Dombrowsky, F. Armougom, Y. Blache, M. Molmeret, Microb. Ecol., 2014, 68, 94-110.

Test [2] relates to Pseudoalteromonas lipolytica (TC8). In words: Anti-adhesion test, strain TC8. As to conditions: for activity at 200 µM: 15 h, read-out: % of adhesion at 200 μM, TC8; for EC50: read-out: EC50 (effective concentration to inhibit 50% of the adhesion), TC8. Type of test: cell-based. As for the experimental part: (§2) The anti-adhesion bioassays and toxicity tests are adapted from those disclosed in M. Camps, J.-F. Briand, L. Guentas-Dombrowsky, G. Culioli, A. Bazire and Y. Blache, Mar. Poll.
as §1

A further test relates to Paracoccus sp. (4M6). In words: Anti-adhesion test, strain 4M6. Type of test: cell-based. As to conditions: for activity at 200 µM: 15 h, read-out: % of adhesion at 200 μM, 4M6; for EC50: read-out: EC50 (effective concentration to inhibit 50% of the adhesion), 4M6. As for the experimental part: as §2, §1
Test [3] can be described thus: Gravimetry (weight loss), corrosion inhibition. As to conditions: mild steel in 1N HCl. As for the experimental part:
The corrosion rates were determined by electrochemical impedance spectroscopy measurements and gravimetry.
Weight loss measurements were performed on 2.5×2.0×0.1 cm rectangular mild steel coupons. The mild steel coupons were immersed into non-de-aerated HCl 1N solution in absence and presence of different concentrations of compounds of general formula (I). After the elapsed time, the coupons were taken out, washed, dried and weighed accurately. Experiments were duplicated.
Weight loss experiments were done to confirm the corrosion inhibitive properties of AS164.
The inhibition efficiency, IE (%), was estimated from the weight loss experiments using the following equation:
[formula] wherein CR^o and CR are respectively the corrosion rate in the absence and presence of AS164.

As to `Oc1ccc(CCn2cc(CCCc3cn(CCc4ccc(O)c(Br)c4)nn3)nn2)cc1Br` [NT21, 4-(2-(4-(3-(1-(3-bromo-4-hydroxyphenethyl)-1H-1,2,3-triazol-4-yl)propyl)-1H-1,2,3-triazol-1-yl)ethyl)-2-bromophenol], the activity at 200 µM in test [1] came to 53 ± 4%; in test [2] (Pseudoalteromonas lipolytica) it was 63%; in the test with Paracoccus sp. (4M6) (Paracoccus), 83.4 ± 3.9%.
`Oc1ccc(CCn2cc(-c3cccc(-c4cn(CCc5ccc(O)c(Br)c5)nn4)c3)nn2)cc1Br` [NT24]: the activity at 200 µM in test [1] is 56.7 ± 1.3%; in test [2] (Pseudoalteromonas lipolytica), 66.5 ± 11.6%; in the test with Paracoccus sp. (4M6) (Paracoccus), 61.5 ± 4.2%.
Turning to `COc1ccc(CCn2cc(COCc3cn(CCc4ccc(OC)c(Br)c4)nn3)nn2)cc1Br` [NT6, 4-(((1-(3-bromo-4-methoxyphenethyl)-1H-1,2,3-triazol-4-yl)methoxy)methyl)-1-(3-bromo-4-methoxyphenethyl)-1H-1,2,3-triazole], the activity at 200 µM in test [1] worked out at 38.4 ± 7.4%; in test [2] (Pseudoalteromonas lipolytica), 42.7 ± 6.5%; with Paracoccus sp. (4M6) (Paracoccus), 44.9 ± 3.1%. Further, the figures for the EC50 (in test [1] (read-out: EC50 (effective concentration to inhibit 50% of the adhesion)); in test [2] (Pseudoalteromonas lipolytica); with Paracoccus sp. (4M6) (Paracoccus)) were 160 ± 33.5 µM, 181 ± 21.3 µM and 164 ± 6.3 µM, respectively.
Turning to `CN(C)CCOc1ccc(CCn2cc(-c3cccc(-c4cn(CCc5ccc(OCCN(C)C)c(Br)c5)nn4)c3)nn2)cc1Br` [AS161, 2-(4-(2-(4-(3-(1-(4-(2-(dimethylamino)ethoxy)-3-bromophenethyl)-1H-1,2,3-triazol-4-yl)phenyl)-1H-1,2,3-triazol-1-yl)ethyl)-2-bromophenoxy)-N,N-dimethylethanamine], the IE % in test [3] (0.1 ppm) was 86.75%; in test [3] (0.3 ppm), 86.21%; in test [3] (0.5 ppm) it was 94.07%; in test [3] (2 ppm), 97.10%; in test [3] (10 ppm), 98.33%.
As for `Oc1ccc(CCn2cc(CCCCc3cn(CCc4ccc(O)c(Br)c4)nn3)nn2)cc1Br` [NT22, 4-(2-(4-(4-(1-(3-bromo-4-hydroxyphenethyl)-1H-1,2,3-triazol-4-yl)butyl)-1H-1,2,3-triazol-1-yl)ethyl)-2-bromophenol], the results for the activity at 200 µM (in test [1]; in test [2] (Pseudoalteromonas lipolytica); with Paracoccus sp. (4M6) (Paracoccus)) were 54.4 ± 1.7%, 85.6 ± 2.1% and 52.4 ± 2.3%, respectively.
For `CN(C)CCOc1ccc(CCn2cc(-c3ccc(-c4cn(CCc5ccc(OCCN(C)C)cc5)nn4)cc3)nn2)cc1` [SA11, 2-(4-(2-(4-(4-(1-(4-(2-(dimethylamino)ethoxy)phenethyl)-1H-1,2,3-triazol-4-yl)phenyl)-1H-1,2,3-triazol-1-yl)ethyl)phenoxy)-N,N-dimethylethanamine], the IE % is reported as 90.50% in test [3] (0.1 ppm); 93.32% in test [3] (0.3 ppm); 95.49% in test [3] (0.5 ppm); 96.95% in test [3] (2 ppm); 97.11% in test [3] (10 ppm).
On to “tributyltin oxide [TBTO, reference compound]”, for which the EC50 came out at 7 ± 3 µM in test [2] (strain TC8) and 4 ± 3 µM in the test on Paracoccus sp. (4M6) (strain 4M6).
For the molecule `CN(C)CCOc1ccc(CCCn2cc(-c3ccc(-c4cn(CCCc5ccc(OCCN(C)C)c(Br)c5)nn4)cc3)nn2)cc1Br` [SA31, 2-(4-(3-(4-(4-(1-(3-(4-(2-(dimethylamino)ethoxy)-3-bromophenyl)propyl)-1H-1,2,3-triazol-4-yl)phenyl)-1H-1,2,3-triazol-1-yl)propyl)-2-bromophenoxy)-N,N-dimethylethanamine], the IE % in test [3] (0.1 ppm) was found to be 80.79%; in test [3] (0.3 ppm), 93.00%; in test [3] (0.5 ppm) it was 95.44%; in test [3] (2 ppm), 96.17%; in test [3] (10 ppm) it was 96.56%.
The corresponding values for `CN(C)CCCOc1ccc(CCn2cc(-c3cccc(-c4cn(CCc5ccc(OCCCN(C)C)c(Br)c5)nn4)c3)nn2)cc1Br` [AS171, 3-(4-(2-(4-(3-(1-(4-(3-(dimethylamino)propoxy)-3-bromophenethyl)-1H-1,2,3-triazol-4-yl)phenyl)-1H-1,2,3-triazol-1-yl)ethyl)-2-bromophenoxy)-N,N-dimethylpropan-1-amine] are 53.82%, 86.91%, 91.72%, 97.25% and 98.51%.
